Laboratory results from US11524966B1 (Valo Early Discovery, Inc., priority 2017, dated 2022).

biological target: T1, USP25 (USP25-His6, Boston Biochem E-546) (Homo sapiens, UniProt Q9UHP3); test: Ubiquitin-Rhodamine 110 Assay for USP25 Activity, Example A-2; assay type: biochemical; conditions: Ubiquitin-Rhodamine 110 assay, Example A-2; read-out: USP25 A-2 IC50 range
T1 construct: His6; purchased Boston Biochem E-546
T1 sequence (Q9UHP3 1-1055): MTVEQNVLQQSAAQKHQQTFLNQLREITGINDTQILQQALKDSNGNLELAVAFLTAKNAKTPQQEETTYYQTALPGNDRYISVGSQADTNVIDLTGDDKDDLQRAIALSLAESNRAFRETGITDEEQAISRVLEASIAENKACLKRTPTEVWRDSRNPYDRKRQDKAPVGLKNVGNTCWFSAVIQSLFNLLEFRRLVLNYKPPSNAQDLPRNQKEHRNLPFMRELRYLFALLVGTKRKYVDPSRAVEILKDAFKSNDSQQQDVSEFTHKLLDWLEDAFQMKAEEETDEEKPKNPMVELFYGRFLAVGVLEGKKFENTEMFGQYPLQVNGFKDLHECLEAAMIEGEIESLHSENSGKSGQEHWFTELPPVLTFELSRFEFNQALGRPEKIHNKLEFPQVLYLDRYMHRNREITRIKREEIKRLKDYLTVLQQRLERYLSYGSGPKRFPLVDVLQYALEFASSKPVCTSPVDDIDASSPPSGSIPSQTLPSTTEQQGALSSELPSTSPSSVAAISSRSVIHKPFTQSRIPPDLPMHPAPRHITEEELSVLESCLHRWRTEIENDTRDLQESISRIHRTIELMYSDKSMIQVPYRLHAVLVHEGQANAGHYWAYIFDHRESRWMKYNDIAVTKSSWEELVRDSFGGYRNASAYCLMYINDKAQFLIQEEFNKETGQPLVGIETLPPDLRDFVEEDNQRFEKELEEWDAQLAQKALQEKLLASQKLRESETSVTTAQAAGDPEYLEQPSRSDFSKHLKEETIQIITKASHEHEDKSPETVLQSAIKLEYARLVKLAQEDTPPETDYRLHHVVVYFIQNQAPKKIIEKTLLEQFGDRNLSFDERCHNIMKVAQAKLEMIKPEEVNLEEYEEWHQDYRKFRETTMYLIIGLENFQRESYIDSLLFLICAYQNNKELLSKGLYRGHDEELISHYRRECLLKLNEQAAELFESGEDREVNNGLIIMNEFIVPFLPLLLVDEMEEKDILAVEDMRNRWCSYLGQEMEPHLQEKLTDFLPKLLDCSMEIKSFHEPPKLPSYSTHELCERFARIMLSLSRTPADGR
Method in brief: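 Cleavage of ubiquitin-rhodamine 110 (25 nM, well below Km) by His-tagged USP25 at 75 pM is measured fluorimetrically after 45 min at room temperature and acid quench. Inhibitors are preincubated with enzyme for 30 minutes. IC50 values come from four-parameter logistic curve fitting.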

`Cc1cc(C)c2c(N)c(C(=O)N[C@H]3CCc4nc(N5CC6CCC(C5)N6)ccc4C3)sc2n1` [Example 354, 3-amino-N-[(6S)-2-{3,8-diazabicyclo[3.2.1]octan-3-yl}-5,6,7,8-tetrahydroquinolin-6-yl]-4,6-dimethylthieno[2,3-b]pyridine-2-carboxamide] and `Cc1ccc2c(N)c(C(=O)N[C@H]3CCc4nc(N5C[C@H](N)[C@H](C(F)F)C5)ccc4C3)sc2n1` [Example 345, 3-amino-N-[(6S)-2-[(3R,4R)-3-amino-4-(difluoromethyl)pyrrolidin-1-yl]-5,6,7,8-tetrahydroquinolin-6-yl]-6-methylthieno[2,3-b]pyridine-2-carboxamide] fall in the same range of IC50: 200 to 2000 nM for the first, 200 to 2000 nM for the second.

First: Cc1cnc2c(N)c(C(=O)N[C@H]3CCc4nc(N5C[C@H](N)C6(COC6)C5)ccc4C3)sc2n1 [Example 365, 7-amino-N-[(6S)-2-[(8R)-8-amino-2-oxa-6-azaspiro[3.4]octan-6-yl]-5,6,7,8-tetrahydroquinolin-6-yl]-3-methylthieno[2,3-b]pyrazine-6-carboxamide]
Second: Cc1cnc2c(N)c(C(=O)N[C@H]3CCc4nc(N5C[C@@H](N)C6(COC6)C5)ccc4C3)sc2n1 [Example 366, 7-amino-N-[(6S)-2-[(8S)-8-amino-2-oxa-6-azaspiro[3.4]octan-6-yl]-5,6,7,8-tetrahydroquinolin-6-yl]-3-methylthieno[2,3-b]pyrazine-6-carboxamide]
The IC50 of the first is lower: 200 to 2000 nM for the first, > 2000 nM for the second.

`Cc1ccc2c(N)c(C(=O)N[C@@H]3CCc4cc(N5CCNCC5)c(F)c(F)c4C3)sc2n1` [Example 418, 3-amino-N-[(2R)-7,8-difluoro-6-(piperazin-1-yl)-1,2,3,4-tetrahydronaphthalen-2-yl]-6-methylthieno[2,3-b]pyridine-2-carboxamide] and `CO[C@H]1CN(c2cc3c(c(F)c2F)C[C@@H](NC(=O)c2sc4nc(C)ccc4c2N)CO3)C[C@@H]1N` [Example 416, 3-amino-N-[(3R)-7-[(3S,4S)-3-amino-4-methoxpyrrolidin-1-yl]-5,6-difluoro-3,4-dihydro-2H-1-benzopyran-3-yl]-6-methylthieno[2,3-b]pyridine-2-carboxamide] fall in the same range of IC50: 200 to 2000 nM for the first, 200 to 2000 nM for the second.

`Cc1ccc2c(N)c(C(=O)N[C@H]3COc4cc(N5C[C@H](OC(F)(F)F)[C@@H](N)C5)ccc4C3)sc2n1` (single isomer, unassigned) [Example 3-10] and `Cc1ccc2c(N)c(C(=O)N[C@H]3COc4cc(N5C[C@@H](N)[C@H](OC(F)(F)F)C5)ccc4C3)sc2n1` (single isomer, unassigned) [Example 3-9] fall in the same range of IC50: 200 to 2000 nM for the first, 200 to 2000 nM for the second.

`Cc1cnc2c(N)c(C(=O)N[C@H]3CCc4cc(N5CCCNCC5)ccc4C3)sc2n1` [Example 455, (S)-N-(6-(1,4-diazepan-1-yl)-1,2,3,4-tetrahydronaphthalen-2-yl)-7-amino-3-methylthieno[2,3-b]pyrazine-6-carboxamide] and `Cc1ccc2c(N)c(C(=O)N[C@@H]3CCc4cc(N5CC6CNCC(C5)O6)ccc4C3)sc2n1` [Example 451, N-((2R)-6-(9-oxa-3,7-diazabicyclo[3.3.1]nonan-3-yl)-1,2,3,4-tetrahydronaphthalen-2-yl)-3-amino-6-methylthieno[2,3-b]pyridine-2-carboxamide] fall in the same range of IC50: 200 to 2000 nM for the first, 200 to 2000 nM for the second.

`CCn1cc(Cl)c2cc(C(=O)N[C@H]3COc4c(F)c(N5CC6CCC(C5)N6)cc(F)c4C3)nnc21` [Example 355, 5-chloro-N-[(3R)-7-{3,8-diazabicyclo[3.2.1]octan-3-yl}-5,8-difluoro-3,4-dihydro-2H-1-benzopyran-3-yl]-7-ethyl-7H-pyrrolo[2,3-c]pyridazine-3-carboxamide] and `Cc1ccc2c(N)c(C(=O)N[C@H]3COc4cc(N5CC6CNC[C@](C)(C5)O6)cc(F)c4C3)sc2n1` [Example 413, 3-amino-N-[(3R)-5-fluoro-7-[(1R)-1-methyl-9-oxa-3,7-diazabicyclo[3.3.1]nonan-3-yl]-3,4-dihydro-2H-1-benzopyran-3-yl]-6-methylthieno[2,3-b]pyridine-2-carboxamide] fall in the same range of IC50: 200 to 2000 nM for the first, 200 to 2000 nM for the second.

First: Cc1cccc2c(C(=O)N[C@H]3COc4cc(N5CCNCC5)ccc4C3)cnn12 [Example 458, (R)-7-methyl-N-(7-(piperazin-1-yl)chroman-3-yl)pyrazolo[1,5-a]pyridine-3-carboxamide]
Second: O=C(N[C@H]1COc2cc(N3CCNCC3)ccc2C1)c1cnn2c(CO)cccc12 [Example 475, 7-(hydroxymethyl)-N-[(3R)-7-(piperazin-1-yl)-3,4-dihydro-2H-1-benzopyran-3-yl]pyrazolo[1,5-a]pyridine-3-carboxamide]
The IC50 of the first is lower: 200 to 2000 nM for the first, > 2000 nM for the second. The first is the more potent here.

`O=C(N[C@H]1COc2cc(N3CCNCC3)ccc2C1)c1cnn2cc(Cl)ccc12` [Example 462, (R)-6-chloro-N-(7-(piperazin-1-yl)chroman-3-yl)pyrazolo[1,5-a]pyridine-3-carboxamide] and `Cc1ccn2ncc(C(=O)N[C@H]3COc4cc(N5CCNCC5)ccc4C3)c2c1` [Example 465, (R)-5-methyl-N-(7-(piperazin-1-yl)chroman-3-yl)pyrazolo[1,5-a]pyridine-3-carboxamide] cannot be ordered by IC50: > 2000 nM for the first, > 2000 nM for the second.

First: Cc1ccc2c(N)c(C(=O)N[C@H]3COc4cc(N5C[C@@H](N)CC56COC6)ccc4C3)sc2n1 (single isomer, unassigned) [Example 352]
Second: Cc1ccc2c(N)c(C(=O)N[C@H]3COc4cc(N5C[C@@H](N)[C@H](F)C5)ccc4C3)sc2n1 [Example 3-8, 3-amino-N-((R)-7-((3R,4R)-3-amino-4-fluoropyrrolidin-1-yl)chroman-3-yl)-6-methylthieno[2,3-b]pyridine-2-carboxamide]
The IC50 of the first is lower: 50 to 200 nM for the first, 200 to 2000 nM for the second. The first is the more potent here.

`Cc1ccc2c(N)c(C(=O)N[C@H]3COc4cc(N5CCN[C@@H](C(F)(F)F)C5)ccc4C3)sc2n1` [Example 3-11, 3-amino-6-methyl-N-((R)-7-((R)-3-(trifluoromethyl)piperazin-1-yl)chroman-3-yl)thieno[2,3-b]pyridine-2-carboxamide] and `Cc1ccc2c(N)c(C(=O)N[C@H]3COc4cc(N5CC[C@]6(CCCNC6)C5)ccc4C3)sc2n1` [Example 3-13, N-((R)-7-((S)-2,7-diazaspiro[4.5]decan-2-yl)chroman-3-yl)-3-amino-6-methylthieno[2,3-b]pyridine-2-carboxamide] fall in the same range of IC50: 200 to 2000 nM for the first, 200 to 2000 nM for the second.

First: Cc1ccc2c(N)c(C(=O)N[C@H]3CCc4nc(N5C[C@@H](N)[C@]6(CCCO6)C5)ccc4C3)sc2n1 [Example 391, 3-amino-N-[(6S)-2-[(5S,9R)-9-amino-1-oxa-7-azaspiro[4.4]nonan-7-yl]-5,6,7,8-tetrahydroquinolin-6-yl]-6-methylthieno[2,3-b]pyridine-2-carboxamide]
Second: Cc1ccc2c(N)c(C(=O)N[C@H]3COc4cc(N5CC[C@@]6(CCCNC6)C5)ccc4C3)sc2n1 [Example 3-14, N-((R)-7-((R)-2,7-diazaspiro[4.5]decan-2-yl)chroman-3-yl)-3-amino-6-methylthieno[2,3-b]pyridine-2-carboxamide]
The IC50 of the first is higher: 200 to 2000 nM for the first, 50 to 200 nM for the second. The second is the more potent here.

`O=C(N[C@H]1COc2cc(N3CCNCC3)ccc2C1)c1ccc(NCc2ccc3c(c2)CCO3)nc1` [Example 472, (R)-6-(((2,3-dihydrobenzofuran-5-yl)methyl)amino)-N-(7-(piperazin-1-yl)chroman-3-yl)nicotinamide] gave an IC50 of 200 to 2000 nM.
